Experiment: Drying of crystalline form in vacuum oven (solid-state stability)
Assay type: physicochemical
Details: vacuum oven at 50° C. with a nitrogen bleed for about 17 hours

change in form by Raman or XRPD after drying: no change in form
change to the water content by TGA after drying: no change to the water content
Structure (SMILES): CCOc1cc(=O)[nH]cc1-c1ccc(CC(=O)Nc2cc(C(C)(C)C(F)(F)F)on2)c(F)c1 [Compound A—Monohydrate, 2-(4-(4-ethoxy-6-oxo-1,6-dihydropyridin-3-yl)-2-fluorophenyl)-N-(5-(1,1,1-trifluoro-2-methylpropan-2-yl)isoxazol-3-yl)acetamide]
